PMC11432330, “Novel Drug-like HsrA Inhibitors Exhibit Potent Narrow-Spectrum Antimicrobial Activities against Helicobacter pylori” (International Journal of Molecular Sciences, 2024)

Tested on: H. pylori 26695
Test: In vivo inhibition of HsrA: RNA-Seq transcriptomic analysis of exposed cells
Type: cell-based, Helicobacter pylori
Conditions: for log2 Fold Change: exposed to lethal concentrations vs control
Protocol: Bacterial growth from three blood agar plates of H. pylori ATCC 700392 (aka 26695) incubated for 48 h at 37 °C under microaerobic conditions was aseptically resuspended in BHI + FBS and adjusted to 10^7 CFU/mL. BHI broth cultures were incubated microaerobically at 37 °C for 24 h. […] At this time, bacterial growth was stopped by adding 1.5 mL ice-cold RNA stop solution (95% absolute ethanol, 5% acid-buffered phenol) and subsequently incubated on ice. Control samples were exposed to the same amount of DMSO instead of the inhibitor. Helicobacter cells from all samples were harvested by centrifugation (4000 rpm at 4 °C for 10 min), then the pellets were quickly frozen by immersion in liquid nitrogen and stored at −80 °C.
RNA-Seq analysis was performed by GENEWIZ (Azenta Life Sciences, Leipzig, Germany). Frozen cell pellets from two biological replicates of each treatment condition were properly submitted to GENEWIZ in dry ice. RNA-Seq libraries were prepared according to standard protocols via rRNA depletion, RNA fragmentation and random priming, reverse transcription, 5’-phosphorylation and dA-tailing of cDNAs, adaptor ligation, and PCR enrichment. Once the quality of each library was confirmed, they were sequenced on an Illumina NovaSeq 6000 (Illumina, San Diego, CA, USA) with 150-bp paired-ends. Raw sequence reads were filtered to remove possible adapter sequences and nucleotides with poor quality using Trimmomatic v.0.36 [105]. The trimmed reads were subsequently mapped to the H. pylori strain 26695 reference genome NC_000915.1 available on NCBI, by using the Bowtie2 aligner v.2.2.6 [106]. Unique gene hit counts were calculated by using featureCounts from the Subread package v.1.5.2. Only unique reads that fell within the gene regions were counted. Using DESeq2 [108], a comparison of the gene expression between the control and treated groups of samples was performed. The Wald test was used to generate p-values and log2 fold changes. Genes with an adjusted p-value < 0.05 and absolute log2 fold change >1 were considered as differentially expressed genes (DEGs) for each comparison. The RNA-Seq data generated in this study have been deposited in ArrayExpress with the accession number E-MTAB-14255.

## NC(=NOC(=O)Nc1ccc(Cl)cc1)c1csc([N+](=O)[O-])c1 [Ligand V, N′-{[(4-chloroanilino)carbonyl]}oxy-5-nitrothiophene-3-carboximidamide]
Gene HP0986, lethal concentrations of V vs control
  log2 Fold Change HP0986: 0.434
Gene HP0987
  log2 Fold Change: -0.503
Gene HP0989, lethal concentrations of V vs control
  log2 Fold Change HP0989: 0.305
Gene HP0993, lethal concentrations of V vs control
  log2 Fold Change HP0993: 0.415
Gene HP0995, lethal concentrations of V vs control
  log2 Fold Change HP0995: 0.339
Gene HP0997, lethal concentrations of V vs control
  log2 Fold Change HP0997: 0.344
Gene HP1008, lethal concentrations of V vs control
  log2 Fold Change HP1008: 0.406
Gene HP1023, lethal concentrations of V vs control
  log2 Fold Change HP1023: 0.173
Gene HP1030, lethal concentrations of V vs control
  log2 Fold Change HP1030: 0.181
Gene HP1036, lethal concentrations of V vs control
  log2 Fold Change HP1036: 0.464
Gene HP1042
  log2 Fold Change: -0.579
Gene HP1057, lethal concentrations of V vs control
  log2 Fold Change HP1057: 0.304
Gene HP1067
  log2 Fold Change: -0.595
Gene HP1080, lethal concentrations of V vs control
  log2 Fold Change HP1080: 0.450
Gene HP1083, lethal concentrations of V vs control
  log2 Fold Change HP1083: 0.380
Gene HP1088, lethal concentrations of V vs control
  log2 Fold Change HP1088: 0.367
Gene HP1091, lethal concentrations of V vs control
  log2 Fold Change HP1091: 0.326
Gene HP1094, lethal concentrations of V vs control
  log2 Fold Change HP1094: 0.330
Gene HP1095, lethal concentrations of V vs control
  log2 Fold Change HP1095: 0.451
Gene HP1096, lethal concentrations of V vs control
  log2 Fold Change HP1096: 0.362
Gene HP1098, lethal concentrations of V vs control
  log2 Fold Change HP1098: 0.266
Gene HP1102
  log2 Fold Change: 1.324
Gene HP1112
  log2 Fold Change: -0.531
Gene HP1113, lethal concentrations of V vs control
  log2 Fold Change HP1113: 0.235
Gene HP1115, lethal concentrations of V vs control
  log2 Fold Change HP1115: 0.309
Gene HP1120, lethal concentrations of V vs control
  log2 Fold Change HP1120: 0.296
Gene HP1122, lethal concentrations of V vs control
  log2 Fold Change HP1122: 0.364
Gene HP1125, lethal concentrations of V vs control
  log2 Fold Change HP1125: 0.243
Gene HP1132, lethal concentrations of V vs control
  log2 Fold Change HP1132: 0.451
Gene HP1139, lethal concentrations of V vs control
  log2 Fold Change HP1139: 0.341
Gene HP1140, lethal concentrations of V vs control
  log2 Fold Change HP1140: 0.260
Gene HP1142, lethal concentrations of V vs control
  log2 Fold Change HP1142: 0.424
Gene HP1154, lethal concentrations of V vs control
  log2 Fold Change HP1154: 0.259
Gene HP1157, lethal concentrations of V vs control
  log2 Fold Change HP1157: 0.263
Gene HP1159
  log2 Fold Change: -0.549
Gene HP1164, lethal concentrations of V vs control
  log2 Fold Change HP1164: 0.208
Gene HP1165, lethal concentrations of V vs control
  log2 Fold Change HP1165: 0.470
Gene HP1171, lethal concentrations of V vs control
  log2 Fold Change HP1171: 0.290
Gene HP1184
  log2 Fold Change: -0.471
Gene HP1193, lethal concentrations of V vs control
  log2 Fold Change HP1193: 0.413
Gene HP1196
  log2 Fold Change: -0.491
Gene HP1218, lethal concentrations of V vs control
  log2 Fold Change HP1218: 0.194
Gene HP1221, lethal concentrations of V vs control
  log2 Fold Change HP1221: 0.426
Gene HP1222, lethal concentrations of V vs control
  log2 Fold Change HP1222: 0.384
Gene HP1226, lethal concentrations of V vs control
  log2 Fold Change HP1226: 0.186
Gene HP1232
  log2 Fold Change: -0.511
Gene HP1234, lethal concentrations of V vs control
  log2 Fold Change HP1234: 0.340
Gene HP1243
  log2 Fold Change: 1.352
Gene HP1251, lethal concentrations of V vs control
  log2 Fold Change HP1251: 0.458
Gene HP1258
  log2 Fold Change: -0.491
Gene HP1261, lethal concentrations of V vs control
  log2 Fold Change HP1261: 0.181
Gene HP1262, lethal concentrations of V vs control
  log2 Fold Change HP1262: 0.367
Gene HP1264, lethal concentrations of V vs control
  log2 Fold Change HP1264: 0.389
Gene HP1267, lethal concentrations of V vs control
  log2 Fold Change HP1267: 0.146
Gene HP1270
  log2 Fold Change: -0.476
Gene HP1285, lethal concentrations of V vs control
  log2 Fold Change HP1285: 0.248
Gene HP1322, lethal concentrations of V vs control
  log2 Fold Change HP1322: 0.318
Gene HP1337, lethal concentrations of V vs control
  log2 Fold Change HP1337: 0.239
Gene HP1343
  log2 Fold Change: -0.493
Gene HP1346
  log2 Fold Change: -0.518
Gene HP1352, lethal concentrations of V vs control
  log2 Fold Change HP1352: 0.160
Gene HP1355
  log2 Fold Change: -0.601
Gene HP1357
  log2 Fold Change: -0.489
Gene HP1358, lethal concentrations of V vs control
  log2 Fold Change HP1358: 0.185
Gene HP1359, lethal concentrations of V vs control
  log2 Fold Change HP1359: 0.220
Gene HP1361, lethal concentrations of V vs control
  log2 Fold Change HP1361: 0.344
Gene HP1363, lethal concentrations of V vs control
  log2 Fold Change HP1363: 0.291
Gene HP1366, lethal concentrations of V vs control
  log2 Fold Change HP1366: 0.348
Gene HP1371, lethal concentrations of V vs control
  log2 Fold Change HP1371: 0.280
Gene HP1377, lethal concentrations of V vs control
  log2 Fold Change HP1377: 0.474
Gene HP1380, lethal concentrations of V vs control
  log2 Fold Change HP1380: 0.326
Gene HP1381
  log2 Fold Change: -0.548
Gene HP1385, lethal concentrations of V vs control
  log2 Fold Change HP1385: 0.232
Gene HP1404, lethal concentrations of V vs control
  log2 Fold Change HP1404: 0.393
Gene HP1411
  log2 Fold Change: 1.307
Gene HP1433, lethal concentrations of V vs control
  log2 Fold Change HP1433: 0.238
Gene HP1434, lethal concentrations of V vs control
  log2 Fold Change HP1434: 0.407
Gene HP1435, lethal concentrations of V vs control
  log2 Fold Change HP1435: 0.348
Gene HP1436, lethal concentrations of V vs control
  log2 Fold Change HP1436: 0.297
Gene HP1438, lethal concentrations of V vs control
  log2 Fold Change HP1438: 0.319
Gene HP1442
  log2 Fold Change: -0.497
